PMC10175918 (Communications Biology, 2023)
Entries after “also recorded” stand apart in the source; their conditions may differ. Like-named read-outs stand apart in the source and are kept apart here.

Key:
Experiment in all cases: TGFα-shedding assay-based GPCR screening with chimeric Gα subunit proteins
Type in all cases: cell-based
348 GPCRs [1] = molecular target: T1, 348 GPCRs (Homo sapiens, UniProt P34972); details: 10µM, Favipiravir 100μM
T1 construct: expressed in transfected cells; host or cells: HEK293A
T1 sequence (P34972 whole entry): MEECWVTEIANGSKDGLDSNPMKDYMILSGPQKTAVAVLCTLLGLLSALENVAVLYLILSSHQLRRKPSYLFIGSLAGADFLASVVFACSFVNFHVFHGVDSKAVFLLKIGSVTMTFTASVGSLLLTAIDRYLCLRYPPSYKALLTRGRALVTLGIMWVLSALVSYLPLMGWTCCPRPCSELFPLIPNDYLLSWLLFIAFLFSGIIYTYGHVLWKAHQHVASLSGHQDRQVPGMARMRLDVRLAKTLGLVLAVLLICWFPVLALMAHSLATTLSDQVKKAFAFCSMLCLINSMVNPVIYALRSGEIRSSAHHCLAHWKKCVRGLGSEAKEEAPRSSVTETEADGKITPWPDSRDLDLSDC

348 GPCRs [2] = molecular target: T2, 348 GPCRs (Homo sapiens, UniProt P47900); details: GPCR P2Y1 (purinergic receptor P2Y, G-protein coupled, 1); 10µM
T2 construct: expressed in transfected cells; host or cells: HEK293A
T2 sequence (P47900 whole entry): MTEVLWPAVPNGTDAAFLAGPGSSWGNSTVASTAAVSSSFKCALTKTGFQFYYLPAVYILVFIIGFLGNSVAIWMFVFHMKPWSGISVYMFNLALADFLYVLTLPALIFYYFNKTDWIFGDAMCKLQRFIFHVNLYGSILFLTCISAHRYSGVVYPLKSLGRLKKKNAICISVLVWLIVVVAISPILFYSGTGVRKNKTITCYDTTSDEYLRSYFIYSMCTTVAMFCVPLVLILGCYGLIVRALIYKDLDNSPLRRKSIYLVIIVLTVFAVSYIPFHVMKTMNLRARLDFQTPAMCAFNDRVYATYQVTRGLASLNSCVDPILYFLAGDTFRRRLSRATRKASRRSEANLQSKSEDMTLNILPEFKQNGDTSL

348 GPCRs [3] = molecular target: T3, 348 GPCRs (Homo sapiens, UniProt P51582); details: 10µM
T3 construct: expressed in transfected cells; host or cells: HEK293A
T3 sequence (P51582 whole entry): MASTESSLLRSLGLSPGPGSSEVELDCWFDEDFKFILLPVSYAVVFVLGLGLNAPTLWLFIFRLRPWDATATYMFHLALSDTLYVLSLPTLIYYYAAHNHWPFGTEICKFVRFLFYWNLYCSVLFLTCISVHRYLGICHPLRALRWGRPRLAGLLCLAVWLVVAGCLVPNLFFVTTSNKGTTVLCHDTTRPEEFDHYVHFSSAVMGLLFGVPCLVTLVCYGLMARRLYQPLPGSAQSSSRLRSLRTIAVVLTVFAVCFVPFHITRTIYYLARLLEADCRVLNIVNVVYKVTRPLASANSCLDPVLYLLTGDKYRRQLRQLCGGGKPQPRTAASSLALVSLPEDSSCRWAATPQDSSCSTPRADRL

348 GPCRs [4] = molecular target: T4, 348 GPCRs (Homo sapiens, UniProt Q8IZP9); details: 10µM
T4 construct: expressed in transfected cells; host or cells: HEK293A
T4 sequence (Q8IZP9 38-1017): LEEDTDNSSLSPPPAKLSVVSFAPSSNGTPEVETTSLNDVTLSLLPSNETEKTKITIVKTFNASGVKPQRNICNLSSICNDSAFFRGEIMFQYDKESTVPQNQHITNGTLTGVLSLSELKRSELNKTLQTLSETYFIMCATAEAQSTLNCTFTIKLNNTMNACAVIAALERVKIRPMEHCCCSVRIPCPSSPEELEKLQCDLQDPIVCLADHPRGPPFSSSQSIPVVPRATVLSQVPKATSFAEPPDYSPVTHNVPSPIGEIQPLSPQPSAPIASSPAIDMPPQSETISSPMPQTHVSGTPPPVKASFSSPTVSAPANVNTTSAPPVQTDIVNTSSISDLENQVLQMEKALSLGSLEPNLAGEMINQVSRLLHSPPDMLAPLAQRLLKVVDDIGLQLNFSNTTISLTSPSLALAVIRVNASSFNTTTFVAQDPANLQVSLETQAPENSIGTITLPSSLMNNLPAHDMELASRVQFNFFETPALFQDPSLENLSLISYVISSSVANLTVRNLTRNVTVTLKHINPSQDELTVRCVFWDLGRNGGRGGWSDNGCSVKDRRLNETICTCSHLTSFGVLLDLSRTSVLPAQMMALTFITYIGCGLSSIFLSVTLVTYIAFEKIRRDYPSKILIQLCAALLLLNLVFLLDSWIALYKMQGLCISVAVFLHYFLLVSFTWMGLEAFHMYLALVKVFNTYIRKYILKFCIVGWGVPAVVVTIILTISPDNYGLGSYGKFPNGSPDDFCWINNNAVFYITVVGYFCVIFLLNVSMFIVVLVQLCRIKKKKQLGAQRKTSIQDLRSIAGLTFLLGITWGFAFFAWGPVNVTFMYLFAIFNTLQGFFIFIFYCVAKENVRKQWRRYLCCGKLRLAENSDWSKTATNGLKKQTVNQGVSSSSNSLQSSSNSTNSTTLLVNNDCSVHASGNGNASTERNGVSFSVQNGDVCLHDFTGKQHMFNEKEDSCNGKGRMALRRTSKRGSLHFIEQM

348 GPCRs [5] = molecular target: T5, 348 GPCRs (Homo sapiens, UniProt Q8NFJ5); details: 10µM, Favipiravir 100μM
T5 construct: expressed in transfected cells; host or cells: HEK293A
T5 sequence (Q8NFJ5 whole entry): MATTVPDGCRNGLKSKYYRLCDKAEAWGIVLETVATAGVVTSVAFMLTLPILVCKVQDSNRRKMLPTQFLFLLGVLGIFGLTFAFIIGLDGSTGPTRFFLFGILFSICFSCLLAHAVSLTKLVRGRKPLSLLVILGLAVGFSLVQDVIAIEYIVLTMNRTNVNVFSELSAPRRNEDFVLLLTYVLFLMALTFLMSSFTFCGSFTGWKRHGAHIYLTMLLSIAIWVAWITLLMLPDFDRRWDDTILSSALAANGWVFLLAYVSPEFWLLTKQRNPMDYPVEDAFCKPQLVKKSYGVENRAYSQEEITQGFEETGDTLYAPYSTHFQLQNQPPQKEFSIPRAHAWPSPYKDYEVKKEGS

348 GPCRs [6] = molecular target: T6, 348 GPCRs (Homo sapiens, UniProt Q9NS67); details: 10µM, Favipiravir 100μM
T6 construct: expressed in transfected cells; host or cells: HEK293A
T6 sequence (Q9NS67 whole entry): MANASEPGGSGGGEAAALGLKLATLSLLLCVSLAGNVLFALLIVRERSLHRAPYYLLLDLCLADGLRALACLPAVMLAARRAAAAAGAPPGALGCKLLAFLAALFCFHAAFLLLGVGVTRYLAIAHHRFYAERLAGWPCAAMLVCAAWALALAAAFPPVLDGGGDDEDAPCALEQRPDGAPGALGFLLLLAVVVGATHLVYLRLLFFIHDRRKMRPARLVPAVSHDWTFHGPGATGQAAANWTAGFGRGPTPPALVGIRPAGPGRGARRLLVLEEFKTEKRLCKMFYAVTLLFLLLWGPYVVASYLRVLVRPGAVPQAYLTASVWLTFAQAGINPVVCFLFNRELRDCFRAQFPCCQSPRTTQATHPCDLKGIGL

348 GPCRs [7] = molecular target: T7, 348 GPCRs (Homo sapiens, UniProt P49286); details: 10µM, Favipiravir 100μM
T7 construct: expressed in transfected cells; host or cells: HEK293A
T7 sequence (P49286 1-362): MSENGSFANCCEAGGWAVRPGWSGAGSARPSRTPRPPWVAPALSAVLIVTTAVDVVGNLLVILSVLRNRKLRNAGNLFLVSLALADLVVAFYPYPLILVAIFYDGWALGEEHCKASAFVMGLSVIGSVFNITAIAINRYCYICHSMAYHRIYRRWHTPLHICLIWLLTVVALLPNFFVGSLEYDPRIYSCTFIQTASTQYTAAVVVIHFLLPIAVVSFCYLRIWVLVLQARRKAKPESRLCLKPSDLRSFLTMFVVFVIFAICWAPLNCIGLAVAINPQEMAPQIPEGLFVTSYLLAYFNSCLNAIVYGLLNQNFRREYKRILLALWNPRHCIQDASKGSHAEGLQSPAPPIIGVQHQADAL

348 GPCRs [8] = molecular target: T8, 348 GPCRs (Homo sapiens, UniProt P25929); details: 10µM, Favipiravir 100μM
T8 construct: expressed in transfected cells; host or cells: HEK293A
T8 sequence (P25929 1-384): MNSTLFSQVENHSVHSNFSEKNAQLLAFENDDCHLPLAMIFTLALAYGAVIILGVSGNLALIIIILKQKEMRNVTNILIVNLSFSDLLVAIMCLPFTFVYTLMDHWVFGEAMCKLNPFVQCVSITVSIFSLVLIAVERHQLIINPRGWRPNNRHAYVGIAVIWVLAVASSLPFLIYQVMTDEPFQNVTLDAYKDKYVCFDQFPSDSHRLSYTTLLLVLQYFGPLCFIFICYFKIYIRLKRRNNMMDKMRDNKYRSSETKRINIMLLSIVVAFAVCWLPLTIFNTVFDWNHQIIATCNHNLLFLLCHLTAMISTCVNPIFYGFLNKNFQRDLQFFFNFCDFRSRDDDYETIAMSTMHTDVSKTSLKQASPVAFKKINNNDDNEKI

348 GPCRs [9] = molecular target: T9, 348 GPCRs (Homo sapiens, UniProt Q9NQS5); details: 10µM, Favipiravir 100μM
T9 construct: expressed in transfected cells; host or cells: HEK293A
T9 sequence (Q9NQS5 whole entry): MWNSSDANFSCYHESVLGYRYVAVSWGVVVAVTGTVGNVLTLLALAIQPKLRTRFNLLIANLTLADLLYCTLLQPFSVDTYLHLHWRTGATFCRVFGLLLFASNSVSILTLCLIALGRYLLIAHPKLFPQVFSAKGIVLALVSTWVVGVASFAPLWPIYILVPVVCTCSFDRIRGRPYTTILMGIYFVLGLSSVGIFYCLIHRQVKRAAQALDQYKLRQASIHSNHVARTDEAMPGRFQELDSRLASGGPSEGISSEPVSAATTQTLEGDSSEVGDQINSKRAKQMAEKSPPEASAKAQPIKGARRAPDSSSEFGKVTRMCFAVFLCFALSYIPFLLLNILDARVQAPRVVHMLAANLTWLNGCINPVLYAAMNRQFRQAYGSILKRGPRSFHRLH

348 GPCRs [10] = molecular target: T10, 348 GPCRs (Homo sapiens, UniProt O00590); details: 10µM, Favipiravir 100μM
T10 construct: expressed in transfected cells; host or cells: HEK293A
T10 sequence (O00590 1-384): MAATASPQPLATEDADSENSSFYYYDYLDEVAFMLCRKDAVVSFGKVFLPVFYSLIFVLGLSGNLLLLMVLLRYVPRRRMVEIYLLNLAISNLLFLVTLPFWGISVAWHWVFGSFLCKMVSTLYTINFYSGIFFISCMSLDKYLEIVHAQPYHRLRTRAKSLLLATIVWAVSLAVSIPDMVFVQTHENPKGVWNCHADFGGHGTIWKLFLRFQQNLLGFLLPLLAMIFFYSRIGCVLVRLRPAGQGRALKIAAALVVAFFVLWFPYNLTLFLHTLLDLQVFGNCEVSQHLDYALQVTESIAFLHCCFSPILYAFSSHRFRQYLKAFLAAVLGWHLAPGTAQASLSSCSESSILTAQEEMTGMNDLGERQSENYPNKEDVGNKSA

348 GPCRs [11] = details: for % GPCR activation compared to TPA: 10µM
348 GPCRs [12] = molecular target: T11, 348 GPCRs (Homo sapiens, UniProt Q9BZJ8); details: 10µM
T11 construct: expressed in transfected cells; host or cells: HEK293A
T11 sequence (Q9BZJ8 whole entry): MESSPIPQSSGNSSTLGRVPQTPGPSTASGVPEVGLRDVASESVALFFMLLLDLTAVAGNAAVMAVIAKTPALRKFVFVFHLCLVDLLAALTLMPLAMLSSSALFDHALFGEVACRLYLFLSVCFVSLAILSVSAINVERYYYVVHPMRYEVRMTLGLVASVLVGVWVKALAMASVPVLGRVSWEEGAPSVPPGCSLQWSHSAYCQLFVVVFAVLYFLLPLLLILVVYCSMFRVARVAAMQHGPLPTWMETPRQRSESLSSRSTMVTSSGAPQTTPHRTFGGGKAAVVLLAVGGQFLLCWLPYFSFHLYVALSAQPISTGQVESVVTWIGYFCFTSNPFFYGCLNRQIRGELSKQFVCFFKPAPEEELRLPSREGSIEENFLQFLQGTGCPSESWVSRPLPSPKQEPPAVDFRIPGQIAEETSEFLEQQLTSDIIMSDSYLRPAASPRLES

348 GPCRs [13] = molecular target: 348 GPCRs (Homo sapiens, UniProt P30874); details: 10µM, Favipiravir 100μM
Sequence of 348 GPCRs (Homo sapiens, UniProt P30874) (P30874 whole entry): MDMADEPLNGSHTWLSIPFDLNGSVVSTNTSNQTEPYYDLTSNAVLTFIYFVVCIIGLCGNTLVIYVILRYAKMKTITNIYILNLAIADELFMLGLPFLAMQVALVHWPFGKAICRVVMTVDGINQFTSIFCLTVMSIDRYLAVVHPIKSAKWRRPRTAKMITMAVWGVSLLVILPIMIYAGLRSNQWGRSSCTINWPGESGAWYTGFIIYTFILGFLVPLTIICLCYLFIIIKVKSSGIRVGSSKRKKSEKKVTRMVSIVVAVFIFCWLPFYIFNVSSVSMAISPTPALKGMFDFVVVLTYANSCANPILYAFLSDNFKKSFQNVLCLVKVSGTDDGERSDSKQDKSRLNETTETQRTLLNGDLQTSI

[14] = EP3 iso6 (prostaglandin E receptor 3 iso6), Favipiravir 100μM
[15] = GPCR GPR68 long (G protein-coupled receptor 68 long)
[16] = GPCR LTB4R2B (leukotriene B4 receptor 2)
[17] = GPCR P2Y13 short (purinergic receptor P2Y, G-protein coupled, 13 short)
[18] = GPR17 short (G protein-coupled receptor 17 short), Favipiravir 100μM
[19] = read-out: % GPCR activation compared to TPA, CB2 (cannabinoid receptor 2)
[20] = read-out: % GPCR activation compared to TPA, GPCR P2Y4 (pyrimidinergic receptor P2Y, G-protein coupled, 4)
[21] = read-out: % GPCR activation compared to TPA, GPCR GPR64 (G protein-coupled receptor 64)
[22] = read-out: % GPCR activation compared to TPA, GPRC5A (G protein-coupled receptor class C group 5 member A)
[23] = read-out: % GPCR activation compared to TPA, GPR27 (G Protein-Coupled Receptor 27)
[24] = read-out: % GPCR activation compared to TPA, MT2R (melatonin receptor type 1B)
[25] = read-out: % GPCR activation compared to TPA, NPY1R (neuropeptide Y receptor Y1)
[26] = read-out: % GPCR activation compared to TPA, GPR84 (G protein-coupled receptor 84)
[27] = read-out: % GPCR activation compared to TPA, CCBP2 (chemokine binding protein 2)
[28] = read-out: % GPCR activation compared to TPA, GPCR GPR61 (G protein-coupled receptor 61)
[29] = read-out: % GPCR activation compared to TPA, SSTR2 (somatostatin receptor 2)

Row | SMILES | % GPCR activation compared to TPA (348 GPCRs [2]) | % GPCR activation compared to TPA (348 GPCRs [11]; [14]) | % GPCR activation compared to TPA (348 GPCRs [11]; [15]) | % GPCR activation compared to TPA (348 GPCRs [11]; [16]) | % GPCR activation compared to TPA (348 GPCRs [11]; [17]) | % GPCR activation compared to TPA (348 GPCRs [11]; [18]) | activation at 100 µM (348 GPCRs [1]; [19]) | activation at 10 µM (348 GPCRs [3]; [20]) | activation at 10 µM (348 GPCRs [4]; [21]) | activation at 100 µM (348 GPCRs [5]; [22]) | activation at 100 µM (348 GPCRs [6]; [23]) | activation at 10 µM (348 GPCRs [7]; [24]) | activation at 100 µM (348 GPCRs [8]; [25]) | activation at 100 µM (348 GPCRs [9]; [26]) | activation at 100 µM (348 GPCRs [10]; [27]) | activation at 10 µM (348 GPCRs [12]; [28]) | activation at 10 µM (348 GPCRs [13]; [29]) | other results
1 | CC(C)C(=O)OC[C@H]1O[C@@H](n2ccc(NO)nc2=O)[C@H](O)[C@@H]1O [molnupiravir] | -11.8258% | -0.792% | -159.537% | -0.2056% | -3.484% | 0.1735% |  |  |  |  |  |  |  |  |  |  |  | activation at 100 µM (348 GPCRs [1]; CB2 (cannabinoid receptor 2), read-out: % GPCR activation compared to TPA): -1.91%; activation at 10 µM (348 GPCRs [3]; GPCR P2Y4 (pyrimidinergic receptor P2Y, G-protein coupled, 4), read-out: % GPCR activation compared to TPA): -12.8%; activation at 10 µM (348 GPCRs [4]; GPCR GPR64 (G protein-coupled receptor 64), read-out: % GPCR activation compared to TPA): -5.62%; activation at 100 µM (348 GPCRs [5]; GPRC5A (G protein-coupled receptor class C group 5 member A), read-out: % GPCR activation compared to TPA): -5.54%; activation at 100 µM (348 GPCRs [6]; GPR27 (G Protein-Coupled Receptor 27), read-out: % GPCR activation compared to TPA): -0.612%; activation at 10 µM (348 GPCRs [7]; MT2R (melatonin receptor type 1B), read-out: % GPCR activation compared to TPA): -1.78%; activation at 100 µM (348 GPCRs [8]; NPY1R (neuropeptide Y receptor Y1), read-out: % GPCR activation compared to TPA): -1.55%; activation at 100 µM (348 GPCRs [9]; GPR84 (G protein-coupled receptor 84), read-out: % GPCR activation compared to TPA): -3.53%; activation at 100 µM (348 GPCRs [10]; CCBP2 (chemokine binding protein 2), read-out: % GPCR activation compared to TPA): -0.55%; activation at 10 µM (348 GPCRs [12]; GPCR GPR61 (G protein-coupled receptor 61), read-out: % GPCR activation compared to TPA): -0.396%; activation at 10 µM (348 GPCRs [13]; SSTR2 (somatostatin receptor 2), read-out: % GPCR activation compared to TPA): -0.658%
2 | CCC(CC)COC(=O)[C@H](C)N[P@](=O)(OC[C@H]1O[C@@](C#N)(c2ccc3c(N)ncnn23)[C@H](O)[C@@H]1O)Oc1ccccc1 [remdesivir] | 11.0377% | 1.469% | -2.927% | -0.9744% | 2.55% | 2.96% | -0.086% | -0.00402% | -4.08% | 9.99% | 0.0845% | -2.11% | 0.0788% | 2.57% | -7.69% | -3.23% | 0.304% | GPCR activation in screening against 348 GPCRs (348 GPCRs [11]; 10 μM remdesivir, molnupiravir, 100 μM favipiravir, chimeric Gα): selectively activate UTS2R; also recorded: selective activator for the urotensin-II receptor (UTS2R); effect on adenosine receptors (348 GPCRs [11]; GPCR assay, adenosine receptors): no effect on adenosine receptors
3 | CC(C)OC(=O)[C@H](C)N[P@](=O)(OC[C@H]1O[C@@H](n2ccc(=O)[nH]c2=O)[C@](C)(F)[C@@H]1O)Oc1ccccc1 [sofosbuvir] | -4.632% | -2.666% | -162.099% | 1.863% | -2.679% | 1.814% | -2.78% | -14.4% | -7.7% | -9.13% | 1.94% | -2.8% | -0.539% | -3.67% | -0.681% | -0.929% | -1.14% | 
